# Results published in patent publication US9884018B2, “Mesalamine suppository” (Aptalis Pharma Canada Inc., priority 2007, dated 2018).
# How the values were obtained:
# Type in all cases: physicochemical
# [1] = Viscosity of molten mixture of mesalamine and hard fat; conditions: in-process molten mixture of mesalamine and hard fat
# Procedure: Molten mixtures were prepared by the procedure described in Example 1 using mesalamine lots A, B, and E, The molten mixtures had the viscosities reported in Table 9 below.
# The in-process molten mixtures of mesalamine and hard fat used in the preparation of the suppositories described above with respect to FIGS. 4 to 6 had the viscosities reported in Table 12 below. Suppositories could not be made from Grades C and D from supplier 2.
# [2] = Tap density of mesalamine powder by USP tapped density test <616>; conditions: for TD (measured tapped density): individual mesalamine lot used in combination, Table 10; for Mesalamine Tap Density: mesalamine lot used for the molten mixture, Table 9; for Tapped Density: mesalamine powder lot, Table 8
# Procedure: Unless otherwise specified, tap density is measured by the USP tapped density test <616>.
# The individual tap densities of each mesalamine lot were used to calculate a composite tapped density (CTD) based on the amount of each lot. The calculated CTD can be expressed by the following equation: (CDF)i+(CDF)2 + . . . (CDF)n=CTD where CTD=composite tapped density: CDF=contributed density factor=% of total drug used/100×TD; TD=measured tapped density; and n=number of drug lots used.
# [3] = Viscosity of molten mixture of mesalamine and hard fat; conditions: molten mixture prepared from the mesalamine lot, Table 11
structure (smiles),measurement,setting,value
"Nc1ccc(O)c(C(=O)O)c1 [Supplier 2, grade B, mesalamine]",Dispersion Viscosity,[1]; Drug Load 33% w/w,515 Cps
same,Dispersion Viscosity,[1]; Drug Load 37% w/w,845 Cps
same,Dispersion Viscosity,[1]; Drug Load 42% w/w,1911 Cps
"Nc1ccc(O)c(C(=O)O)c1 [Mesalamine Lot E, mesalamine]",TD (measured tapped density),[2]; listed as E,0.68 g/mL
same,Mesalamine Tap Density,[2]; listed as E,0.68 g/mL
same,Tapped Density,[2]; listed as E,0.68 g/mL
"Nc1ccc(O)c(C(=O)O)c1 [Mesalamine Lot B, mesalamine]",Mesalamine Tap Density,[2]; listed as B,0.72 g/mL
same,Tapped Density,[2]; listed as B,0.72 g/mL
"Nc1ccc(O)c(C(=O)O)c1 [Supplier 2, grade A, mesalamine]",Dispersion Viscosity,[1]; Drug Load 33% w/w,595 Cps
same,Dispersion Viscosity,[1]; Drug Load 37% w/w,1084 Cps
same,Dispersion Viscosity,[1]; Drug Load 42% w/w,2553 Cps
"Nc1ccc(O)c(C(=O)O)c1 [Mesalamine Lot C, mesalamine]",TD (measured tapped density),[2]; listed as C,0.68 g/mL
same,Tapped Density,[2]; listed as C,0.68 g/mL
"Nc1ccc(O)c(C(=O)O)c1 [Mesalamine Lot No. 7, mesalamine]",Viscosity,[3]; listed as 7,37830 cps
same,Tap Density,"[2]; mesalamine lot nos. 1-8, Table 11, listed as 7",0.36 g/mL
"Nc1ccc(O)c(C(=O)O)c1 [Supplier 2, grade D, mesalamine]",Dispersion Viscosity,[1]; Drug Load 33% w/w,Poor
"Nc1ccc(O)c(C(=O)O)c1 [Supplier 2, grade C, mesalamine]",Tap Density,"[2]; mesalamine by source, Table 12",0.00058 g/mL
same,Dispersion Viscosity,[1]; Drug Load 33% w/w,Too Viscous
"Nc1ccc(O)c(C(=O)O)c1 [Mesalamine Lot G, mesalamine]",TD (measured tapped density),[2]; listed as G,0.60 g/mL
same,Tapped Density,[2]; listed as G,0.60 g/mL
"Nc1ccc(O)c(C(=O)O)c1 [Mesalamine Lot D, mesalamine]",TD (measured tapped density),[2]; listed as D,0.37 g/mL
same,Tapped Density,[2]; listed as D,0.39 g/mL
"Nc1ccc(O)c(C(=O)O)c1 [Mesalamine Lot F, mesalamine]",TD (measured tapped density),[2]; listed as F,0.46 g/mL
same,Tapped Density,[2]; listed as F,0.46 g/mL
"Nc1ccc(O)c(C(=O)O)c1 [Mesalamine Lot A, mesalamine]",Mesalamine Tap Density,[2]; listed as A,0.81 g/mL
same,Tapped Density,[2]; listed as A,0.81 g/mL
"Nc1ccc(O)c(C(=O)O)c1 [Supplier 1, mesalamine]",Dispersion Viscosity,[1]; Drug Load 33% w/w,694 Cps
same,Dispersion Viscosity,[1]; Drug Load 37% w/w,1131 Cps
same,Dispersion Viscosity,[1]; Drug Load 42% w/w,2512 Cps
"Nc1ccc(O)c(C(=O)O)c1 [Mesalamine Lot No. 8, mesalamine]",Viscosity,[3]; listed as 8,33735 cps
same,Tap Density,"[2]; mesalamine lot nos. 1-8, Table 11, listed as 8",0.37 g/mL
